Reference: PMC4457840, “Differential Inhibition of Signal Peptide Peptidase Family Members by Established γ-Secretase Inhibitors” (PLoS ONE, 2015)
Entries after “also recorded” stand apart in the source; their conditions may differ. Numbered stars: 1 amine (or outer) side, 2 acyl side, 3 side chain; on linkers, the order of the positions; unused ones are H or OH. Square brackets hold non-standard residues; d marks the D form. Peptide text beside a SMILES is read from it. * marks the point of attachment. X1 = CC(N[*:1])C(=O)C(F)(F)C(=O)[*:2]; Boc = CC(C)(C)OC(=O)*

Key:
hSPP = target: T1, hSPP (Homo sapiens, UniProt Q8TCT9); assay: FBA/hSPP co-transfected HEK 293T cell cleavage assay (Aβ ELISA, Western blot, IP/MS); format: cell-based; conditions: for inhibition of xAβ1-25/K16A secretion (in words) / inhibition at 25 µM: 25 μM, ELISA; for inhibition of FBA cleavage by Western blot: Fig 3C lower panel; for IC50: HEK cells, 24 h, xAβ1-25/K16A by Aβ ELISA, mean ± standard error, read-out: IC50 on FBA/SPPL co-transfected cells; for inhibition at 25 µM: DMSO = 100%, read-out: inhibition of the SPP/SPPLs; for rank order of inhibition: number in parenthesis in Table 3
T1 construct: expressed in transfected cells; host or cells: HEK 293T
T1 sequence (Q8TCT9 1-377): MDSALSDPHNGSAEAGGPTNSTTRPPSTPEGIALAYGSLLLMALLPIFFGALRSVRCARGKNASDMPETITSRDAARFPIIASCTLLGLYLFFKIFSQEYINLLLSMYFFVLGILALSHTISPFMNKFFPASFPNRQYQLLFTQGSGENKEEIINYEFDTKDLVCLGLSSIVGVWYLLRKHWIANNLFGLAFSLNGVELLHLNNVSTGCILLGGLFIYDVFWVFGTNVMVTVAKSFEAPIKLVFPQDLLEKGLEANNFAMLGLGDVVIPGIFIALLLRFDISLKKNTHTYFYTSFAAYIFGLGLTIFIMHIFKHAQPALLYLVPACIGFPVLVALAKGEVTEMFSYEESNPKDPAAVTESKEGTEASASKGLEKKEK
Excerpt: (§1) Expression constructs in pcDNA6 for COOH-terminal FLAG (DYKDDDDK) and strep (WSHPQFEK) tagged SPPL2a, SPPL2b, hSPP and pSPP were generated as previously described. Untagged versions of all enzymes were also made and ligated into the pAG3 vector. Substrates (Fig 1) were designed as follows: FLAG-BRI2_1-81- Aβ1-25/K16A (FBA). The K16A mutation was incorporated to prevent potential α-secretase cleavage that would preclude ELISA based detection of the released COOH-terminal fragment. The substrate DNA was cloned into the expression vector pcDNA6. Constructs were confirmed by DNA sequencing. The overexpression of substrates was performed by transiently transfecting human embryonic kidney (HEK 293T) cells with or without SPP/SPPL vectors. Cells were grown in DMEM media supplemented with Hyclone 10% fetal bovine serum (GE, Logan, Utah, USA) and 1% penicillin/streptomycin (Life Technologies, Grand Island, NY, USA). Briefly, 2.7 μg DNA was applied to a 75% confluent 6 well plate (Corning, Tewksbury, MA, USA) using the polycation polyethylenimine (PEI) transfection method. Inhibitor testing experiments were conducted in 48 well plates with appropriately adjusted amounts of DNA and PEI and incubated 12–16 hours, after which the growth medium was replaced with fresh medium. DMSO (Sigma, St. Louis, MO, USA) and GSIs were added at the appropriate concentration. The GSIs, L685,458 and Compound W were purchased from Tocris (Tocris, Bristol, UK). (Z-LL)2 ketone, Compound E, DAPT, GSI II were purchased from Calbiochem (Merck Millipore, Billerica, MA, USA). LY-411,575 was synthesized by A. Fauq at the Mayo Clinic Chemical Core. Twenty-four hours later, the medium was collected for assay by ELISA and MS. A20 cells (TIB-208) (ATCC, Manassas, VA, USA) were cultured in RPMI-1640 medium (ATCC) supplied with 10% fetal bovine serum, 1% penicillin/streptomycin and 0.05 mM 2-mercaptoethanol (Life Technologies). At the density of 5x10^5 cells/ml, A20 cells were spun down at 1000 g for 2 min and resuspended in fresh medium supplied with DMSO or GSIs and incubated for 16 hr.
(§2) Sandwich ELISAs used for Aβ detection were performed as previously described. Briefly, Aβ and Aβ adducts with substrate TMD in conditioned media was captured with Ab5 antibody (human Aβ1–16 specific) and detected with horseradish peroxidase mAb 4G8 (Covance, Princeton, NJ, USA). Synthetic Aβ1–40 was used as standard. All ELISAs were developed with TMB substrate (KPL, Gaithersburg, Maryland, USA). Bis-Tris precast gels (Biorad, Hercules, CA, USA) were used for all SDS-PAGE. Monoclonal anti-FLAG M2 antibody (Sigma) and Aβ1–16 antibody 6E10 (Covance) were used for Western blotting. Antisera against SPPL2a, SPPL2b, hSPP and pSPP were generated as previously described and were used at dilution of 1:1000 for Western blotting. Anti-CD74 In-1 antibody (BD Bioscience, San Jose, CA, USA) was used for A20 cell lysate Western blotting at dilution of 1:1000.
(§3) Immunoprecipitation and mass spectrometry of xAβ1–25 in conditioned media were performed as previously described. In this study, 10 ml conditioned media were used for each experiment. ICDs were immunoprecipitated with anti-FLAG M2 magnetic beads. Cells from 10 cm dished treated with DMSO or 20 μM LY-411,575 were used for each test.

SPPL2b = target: T2, SPPL2b (Homo sapiens, UniProt Q8TCT7); assay: FBA/SPPL2b co-transfected HEK 293T cell cleavage assay (Aβ ELISA, Western blot, IP/MS); format: cell-based; conditions: for inhibition of xAβ1-25/K16A secretion (in words) / inhibition at 25 µM: 25 μM, ELISA; for inhibition of FBA cleavage (10 kD ICD) by Western blot: Fig 3C upper panel; for IC50: HEK cells, 24 h, xAβ1-25/K16A by Aβ ELISA, mean ± standard error, read-out: IC50 on FBA/SPPL co-transfected cells; for inhibition at 25 µM: DMSO = 100%, read-out: inhibition of the SPP/SPPLs; for rank order of inhibition: number in parenthesis in Table 3
T2 construct: expressed in transfected cells; host or cells: HEK 293T
T2 sequence (Q8TCT7 26-592): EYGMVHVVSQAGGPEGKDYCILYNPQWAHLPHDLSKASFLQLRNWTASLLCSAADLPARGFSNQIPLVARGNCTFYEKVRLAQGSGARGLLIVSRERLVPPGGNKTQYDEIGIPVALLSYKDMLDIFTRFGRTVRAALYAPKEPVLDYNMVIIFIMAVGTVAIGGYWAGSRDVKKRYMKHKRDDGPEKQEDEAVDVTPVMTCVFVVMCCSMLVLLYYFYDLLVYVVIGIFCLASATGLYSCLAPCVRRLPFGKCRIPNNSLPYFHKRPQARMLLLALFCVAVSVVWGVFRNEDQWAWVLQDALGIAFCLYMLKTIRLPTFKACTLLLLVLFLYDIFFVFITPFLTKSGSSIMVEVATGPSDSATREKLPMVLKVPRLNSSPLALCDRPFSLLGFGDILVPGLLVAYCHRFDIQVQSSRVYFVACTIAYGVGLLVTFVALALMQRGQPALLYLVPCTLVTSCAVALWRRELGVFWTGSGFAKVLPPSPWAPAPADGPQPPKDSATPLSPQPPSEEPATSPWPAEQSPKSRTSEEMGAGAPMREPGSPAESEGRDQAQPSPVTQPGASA
Excerpt: as §1, §2, §3

γ-secretase = tested on: γ-secretase; design: method as in PMID 24352661, PMID 23791707; conditions: cited from earlier work
SPP = tested on: SPP; design: method as in PMID 15252014, PMID 19337374, PMID 12621027; conditions: cited from earlier work
[1] = 10 μM, Western blot anti-FLAG M2
[2] = HEK-293T, 10 μM, overnight, Aβ ELISA

Compound	inhibition of xAβ1-25/K16A secretion (in words) (hSPP)	inhibition of FBA cleavage by Western blot (hSPP)	IC50 (hSPP)	inhibition at 25 µM (hSPP; HEK-293T)	rank order of inhibition (hSPP)	inhibition of xAβ1-25/K16A secretion (in words) (SPPL2b)	inhibition of FBA cleavage (10 kD ICD) by Western blot (SPPL2b)	IC50 (SPPL2b)	inhibition at 25 µM (SPPL2b; HEK-293T)	rank order of inhibition (SPPL2b)	inhibition of SPP activity (SPP)	also measured
CC(C)C[C@H](NC(=O)OCc1ccccc1)C(=O)N[C@@H](CC(C)C)C(=O)NCC(=O)CNC(=O)[C@H](CC(C)C)NC(=O)[C@H](CC(C)C)NC(=O)OCc1ccccc1 [(Z-LL)2 ketone]	largely inhibited	efficiently inhibited	519 ± 97 nM	> 90%	4	largely inhibited	greatly inhibit	2140 ± 143 nM	> 90%	2		FBA cleavage by co-transfected SPPL (in words) (hSPP; 10 μM, Aβ ELISA, Fig 1D): largely inhibited; generation of the SPP/SPPL dependent 10 kDa ICD (hSPP; [1]): significantly reduced; inhibition at 10 µM (hSPP; [2]): > 75%; FBA cleavage by co-transfected SPPL (in words) (SPPL2b; 10 μM, Aβ ELISA, Fig 1D): largely inhibited; generation of the SPP/SPPL dependent 10 kDa ICD (SPPL2b; [1]): significantly reduced; inhibition at 10 µM (SPPL2b; [2]): > 75%; inhibition of γ-secretase cleavage of APP (γ-secretase): does not inhibit
C[C@H](NC(=O)Cc1cc(F)cc(F)c1)C(=O)N[C@H]1N=C(c2ccccc2)c2ccccc2N(C)C1=O [Compound E]	inhibited; also recorded: selectively inhibit hSPP cleavage	efficiently inhibited	1470 ± 93 nM			did not show inhibition	negligible effect					inhibition of xAβ1-25/K16A secretion (in words) (hSPP; listed as Comp E): selectively inhibit hSPP
C[C@H](NC(=O)Cc1cc(F)cc(F)c1)C(=O)NC(C(=O)OC(C)(C)C)c1ccccc1 (stereo partly drawn) [DAPT]	does not inhibit					does not inhibit	slightly reduce				selectively inhibit PSENs, but not SPPs	
CC[C@H](C)[C@H](NC(=O)[C@@H](NC(=O)OC(C)(C)C)C(C)C)C(=O)NC(C)C(=O)C(F)(F)C(=O)N[C@H](C(=O)N[C@H](C(=O)OC)[C@@H](C)CC)C(C)C (stereo partly drawn) [GSI II] (Boc-VI[X1]VI-OMe)	efficiently inhibited; also recorded: largely inhibited	efficiently inhibited	423 ± 92 nM		3	efficiently inhibited; also recorded: largely inhibited	greatly inhibit	3600 ± 121 nM		3		
C[C@H](NC(=O)[C@@H](O)c1cc(F)cc(F)c1)C(=O)N[C@@H]1C(=O)N(C)c2ccccc2-c2ccccc21 [LY-411,575]	largely inhibited	efficiently inhibited	150 ± 106 nM	> 90%	1	largely inhibited	greatly inhibit	5500 ± 122 nM	> 90%	4	inhibit the activity of SPP	cleavage products in conditioned media by IP/MS (hSPP; 20 μM): No major cleavage product was detected; cleavage products in conditioned media by IP/MS (SPPL2b; 20 μM): No major cleavage product was detected
